We go through one substance from patent US20240271096A1, “EFFICIENT DIFFERENTIATION OF SECOND HEART FIELD CARDIAC PROGENITOR CELLS AND RIGHT VENTRICLE CARDIOMYOCYTES FROM HUMAN PLURIPOTENT STEM CELLS” (Wisconsin Alumni Research Foundation, priority 2023, published 2024).

In assay [1] the test system is HES3-TBX5-TdTomato^+/W/NKX2-5^eGFP/W reporter hESC line. Nature of the assay: NKX2-5-eGFP and TBX5-tdTomato reporter expression during GiWi cardiac differentiation (fluorescence microscopy). The format is cell-based, human. The source says: Human iPSCs (hiPSCs) were established from a healthy donor (FIG. 1), 201B7 hiPSCs (RIKEN BRC, Tsukuba, Japan), and HES3-TBX5-TdTomato^+/W/NKX2-5^eGFP/Wreporter hESCs that were a kind gift from Dr. Reza Ardehali, UCLA Geffen School of Medicine (Pezhouman et al., 2022, Cardiovasc Res. 118(3):828-43), were used. HiPSCs were maintained on iMatrix-511 (Matrixome, Osaka, Japan)-coated 6-well plates (Corning, Glendale, Arizona, United States) in StemFit AK02N (Ajinomoto, Tokyo, Japan) and passaged every 7 days.
HESCs were maintained on Matrigel Growth Factor Reduced Basement Membrane Matrix (Corning)-coated 6-well plates (Corning) in StemFlex Medium (Thermo Fisher Scientific, Waltham, MA, United States) and passaged every 3-4 days. StemPro Accutase Cell Dissociation Reagent (Thermo Fisher Scientific) was used for dissociation. 10 μmol/L Y27632 (Tocris, Bristol, United Kingdom) was used for improvement of cell survival for 24 hours after seeding. Mycoplasma tests were performed for all the cell culture in this study.
For LV-cardiomyocyte differentiation, cardiac differentiation was performed according to the protocol published by (Lian et al., 2012, Proc Natl Acad Sci USA 109:E1848-57). Cells were dissociated with StemPro Accutase Cell Dissociation Reagent at 37° C. for 5 minutes. HESCs were seeded on Matrigel-coated 24-well plates (Corning) in StemFlex Medium supplemented with 10 μmol/L Y-27632. HiPSCs were seeded on iMatrix-511-coated 12-well plates (Corning) in StemFit AK02N supplemented with 10 μmol/L Y-27632 at seeding densities of 1×10^5 cells/cm^2 for hESCs and 1.25-2.5×10^4 cells/cm^2 for hiPSCs. Cells were cultured for 4 days until the start of differentiation (day 0). On day 0, the medium was changed to RPMI 1640 Medium (Thermo Fisher Scientific) supplemented with B-27 Supplement minus insulin (Thermo Fisher Scientific) (RPMI/B27-insulin) or B-27 Supplement with insulin (Thermo Fisher Scientific), and 12 μmol/L CHIR 99021 (SelleckChem, Houston, TX, United States), and the cells incubated in this medium for 24 h (day 1). On day 1, the medium was changed to RPMI/B27-insulin. To enhance cardiac differentiation, 50 μmol/L 2-O-α-D-glucopyranosyl-L-ascorbic acid (Tokyo Chemical Industry, Tokyo, Japan) was added on day 1 only for hiPSCs (Burridge et al., 2014 Nat Methods, 11:855-860). On day 3, the medium was changed to RPMI/B27-insulin supplemented with 5 μmol/L IWP2 (SelleckChem) and on day 5, the medium was changed to 1 ml RPMI/B27-insulin. From day 7, the cells were cultured with RPMI/B27-insulin, and the cells were fed every other day. On day 12, the cells were washed with PBS (Thermo Fisher Scientific) and cultured with DMEM or RPMI, no glucose supplemented with 8 mmol/L L-(+)-Lactic acid (Merck) (Tohyama et al., 2013 Cell Stem Cell, 12:127-37). The medium was changed every other day until day 17. After day 17, the cells were cultured with RPMI/B27 and fed every 2 to 3 days. For long-term culture, the cells were dissociated with TrypLE™ Select Enzyme (10×) (Thermo Fisher Scientific) at 37° C. for 15-20 minutes and seeded on Matrigel- or iMatrix-511-coated plates. For RV-cardiomyocyte induction, Dorsomorphin 2HCl (SelleckChem), dorsomorphin homologue 1 (DMH1) (SelleckChem), or 3 μg/L insulin were used from day 0 to day 1. For FIG. 15A and FIG. 15B, dorsomorphin (DM) or 3 μg/L insulin were added on day 0 (for 24 hours), 1, 3, or 5 (for 48 hours).

In the next assay the test system is SMAD1/5. As to the kind of experiment: Western blotting of SMAD1/5 phosphorylation in GiWi protocol. The format is cell-based, human. As to conditions: insulin added on differentiation day 0; measured on day 3. The text has this: Using the cell lysis solution contained in the Minute Total Protein Extraction Kit for Animal Cultured Cells/Tissues (Invent Biotechnologies, Plymouth, MN, United States) with Protease Inhibitor Cocktail Set III (×100) (Fujifilm Wako Pure Chemical Corporation, Osaka, Japan) and Phosphatase Inhibitor Cocktail Solution II (×100) (Fujifilm Wako Pure Chemical Corporation), cells at day 3 of differentiation were lysed and proteins were extracted according to the manufacturer's instructions. Protein concentration was measured with a Pierce BCA Protein Assay Kit (Thermo Fisher Scientific), iMark microplate reader and Microplate Manager 6 software (Bio-Rad, Hercules, CA, USA). Fifty micrograms of protein combined with Laemmli sample buffer (Bio-Rad) were boiled at 95° C. for 5 minutes and then loaded onto 10% Mini-PROTEAN TGX Precast Gels (Bio-Rad). Proteins were transferred to nitrocellulose membranes and blocking was performed using Tris buffered saline with Tween20 with 5% nonfat dry milk for 1 hour at room temperature. […] Immunoblotted proteins were detected by ECL Prime Western blotting detection reagents and ImageQuant LAS4000 mini (GE Healthcare, Chicago, IL, USA).
(In general: In western blotting, separated proteins are transferred to a membrane and probed.)

Setting [2] is: 3 μg/mL insulin on day 0, read day 13.
Setting [3] is: B-27 supplement containing insulin on differentiation day 0, read day 7 (cardiac progenitor stage).
The mark [4] stands for this setting: B-27 supplement containing insulin on differentiation day 0, read day 14 (cardiomyocyte stage).

On to insulin, for which, in assay [1] (setting [2]), the Nkx2.5-eGFP expression entry is reported as “strong”. Besides, the TBX5-tdTomato expression result in assay [1] (setting [2]) is reported as “without TBX5-tdTomato expression”; in assay [1] (setting [3]), “low”; in assay [1] (setting [4]), “low”. In addition, the “eGFP and TBX5-tdTomato expression” value in assay [1] (10 μg/mL insulin on day 0, read day 13) is listed as “very low”. For the same substance, the “TBX5-tdTomato expression, dose dependence” value in assay [1] (0.1, 0.3, 1, and 3 μg/mL insulin on day 0, read day 13) is listed as “decreased with increasing doses”. Besides, the NKX2-5-eGFP expression entry in assay [1] (setting [3]) is on record as “low”; in assay [1] (setting [4]) it was “high”. The “phosphorylation of SMAD1/5” value in the assay with SMAD1/5 is listed as “suppressed”.
